Reference: patent publication US11464750B2, “Anticancer agent and use thereof” (priority 2017, dated 2022)

Experiments:
ATR protein = assay: Western blotting, ATR protein, JeKo-1 cells; assay type: cell-based, human; settings: 0.5 μM
Procedure: (§1) Specifically, JeKo-1 cells were cultured for 0 (control), 12, 24, and 48 hours in the presence of 0.5 μM of 3EZ,20Ac-ingenol. In addition, Panc-1 cells were cultured for 0 (control), 12, 24, and 48 hours in the presence of 3 μM of 3EZ,20Ac-ingenol.
(§2) Subsequently, ATR protein, p53 protein, and phosphorylated p53 (hereinafter also referred to as “p-p53”) protein in the respective cells were respectively detected using an anti-ATR antibody (Cell Signaling Technology), an anti-p53 antibody (Santa Cruz), and an anti-p-p53 antibody (Cell Signaling Technology). Furthermore, as a loading control, actin protein was detected using an anti-actin antibody (Sigma).

TKG0210 cells = assay: Cell Death Detection ELISA, TKG0210; assay type: cell-based, human; settings: 0.5 μM, 72 hours
Procedure: (§3) The induction of apoptosis by 3EZ,20Ac-ingenol treatment was examined by detecting histone-binding DNA fragmentation in the cytoplasm using a Cell Death Detection ELISA kit (Roche Applied Science).
(§4) Specifically, BALL-1 cells, TKG0210 cells, and TKG0377 cells were inserted into tubes at 5×10^4 cells/well/200 μL, and incubated for 6, 12, 24, 48, and 72 hours in the presence of 3EZ,20Ac-ingenol at a final concentration of 0.5 μM. Subsequently, the respective cells were lysed in a lysis buffer. Subsequently, the supernatant of cell debris of the respective cells was collected and transferred to an ELISA plate, and an absorbance at a wavelength of 405 nm was measured to measure the induction of apoptosis.

p21 protein = assay: Western blotting, p21 protein, Panc-1 cells; assay type: cell-based, human; settings: 3 μM
Procedure: (§5) Specifically, JeKo-1 cells were cultured for 0 (control), 12, 24 and 48 hours in the presence of 0.5 μM of 3EZ,20Ac-ingenol. In addition, Panc-1 cells were cultured for 0 (control), 12, 24, and 48 hours in the presence of 3 μM of 3EZ,20Ac-ingenol.
(§6) Subsequently, phosphorylation of H2AX in the respective cells was detected using an anti-phosphorylated-H2AX antibody (Millipore). In addition, p21 protein was detected using an anti-p21 antibody (Cell Signaling Technology). Furthermore, as a loading control, actin protein was detected using an anti-actin antibody (Sigma).

TKG0377 cells = assay: Cell Death Detection ELISA, TKG0377; assay type: cell-based, human; settings: 0.5 μM, 72 hours
Procedure: as §3, §4

cyclin D1 = assay: Western blotting, cyclin D1, BALL-1 cells; assay type: cell-based, human; settings: 0.5 μM
Procedure: Specifically, BALL-1 cells were cultured for 12, 24, and 48 hours in the presence of 3EZ,20Ac-ingenol at a final concentration of 0.5 μM, and abundances of cyclin D1 in the nuclear fraction and the cytoplasm fraction were analyzed by Western blotting. In addition, cells cultured in the absence of 3EZ,20Ac-ingenol were used as controls.
Whether transfer of cyclin D1 from the nucleus to the cytoplasm is ATR-dependent and PTEN-dependent was examined using siRNA against ATR and siRNA against PTEN. First, siRNA against ATR (“ON-TARGET Plus Human ATR (545) siRNA-SMARTpool,” GE Dharmacon), siRNA against PTEN (“ON-TARGET Plus Human PTEN (5728) siRNA-SMARTpool,” GE Dharmacon), and control siRNA (“ON-TARGET Plus Nontargeting pool,” GE Dharmacon) were respectively introduced into BALL-1 cells at a final concentration of 50 nM, and incubated for 48 hours.
Subsequently, a cell medium was replaced with a new medium containing 3EZ,20Ac-ingenol at a final concentration of 0.5 μM, and culturing was performed for 24 and 48 hours. Subsequently, abundances of cyclin D1 in the nuclear fraction and the cytoplasm fraction were analyzed by Western blotting using an anti-cyclin-D1 antibody (Santa Cruz).

topoisomerase = settings: cited from earlier work
BALL-1 cells [1] = assay: Cell cycle analysis by flow cytometry; assay type: cell-based, human; settings: 0.5 μM
Procedure: Specifically, BALL-1 cells were treated with 3EZ,20Ac-ingenol at a final concentration of 0.5 μM for 6, 12, 24, and 48 hours, and then a phase of a cell cycle was analyzed using flow cytometry. In addition, cells that were not treated with 3EZ,20Ac-ingenol were used as controls.

p53 protein = assay: Western blotting, p53 protein, JeKo-1 cells; assay type: cell-based, human; settings: 0.5 μM, 12 hours until 48 hours after treatment
Procedure: as §1, §2

BALL-1 cells [2] = assay: MTT assay, BALL-1 cells with siRNA against ATR; assay type: cell-based, human; settings: 0.5 μM, 48 hours
Procedure: An effect of ATR activity on cell proliferation inhibition was examined. In the same manner as in Experimental Example 9, siRNA against ATR was introduced into BALL-1 cells, and the cells were incubated for 48 hours. Subsequently, a cell medium was replaced with a medium containing 3EZ,20Ac-ingenol at a final concentration of 0.5 μM, and culturing was performed for 48 hours.
For comparison, BALL-1 cells cultured for 48 hours in a medium containing 3EZ,20Ac-ingenol at a final concentration of 0.5 μM without introduction of siRNA were used. In addition, as controls, cells into which control siRNA (“ON-TARGET Plus Nontargeting pool,” GE Dharmacon) was introduced and which were then cultured in the absence of 3EZ,20Ac-ingenol were used.

caspase 3 = assay: Western blotting, activated caspase 3, Panc-1 cells; assay type: cell-based, human; settings: 3 μM, 12 hours after treatment
Procedure: Specifically, JeKo-1 cells were cultured for 0 (control), 12, 24, and 48 hours in the presence of 0.5 μM of 3EZ,20Ac-ingenol. In addition. Panc-1 cells were cultured for 0 (control), 12, 24, and 48 hours in the presence of 3 μM of 3EZ,20Ac-ingenol. Subsequently, activation of caspase 3 in the respective cells was detected by Western blotting using an anti-activated-caspase antibody (R & D Systems). Furthermore, as a loading control, actin protein was detected using an anti-actin antibody (Sigma).

[3] = tested on: phosphorylated H2AX (γH2AX); assay: Western blotting, phosphorylated H2AX, Panc-1 cells; assay type: cell-based, human; settings: 3 μM, 12, 24, 48 hours
Procedure: as §5, §6

## CCCCC/C=C\C=C\C(=O)O[C@H]1C(C)=C[C@]23C(=O)[C@@H](C=C(COC(C)=O)[C@@H](O)[C@]12O)[C@H]1[C@@H](C[C@H]3C)C1(C)C [3EZ,20Ac-ingenol, 3-O-(2′E,4′Z-decadienoyl)-20-O-acetylingenol]
ATR protein; 12 hours, further increase 24 hours after treatment
  expression level of ATR protein: an increase in expression level of ATR protein was recognized
ATR protein; 48 hours after treatment
  expression level of ATR protein: a decrease was recognized
TKG0210 cells
  amount of fragmented DNA (apoptosis): almost no fragmented DNA was detected
p21 protein; 12 hours after treatment
  expression of p21 protein: induction of a high expression level of p21 protein was observed
p21 protein; 48 hours after treatment
  expression of p21 protein: a rapid decrease in p21 protein was recognized
TKG0377 cells
  amount of fragmented DNA (apoptosis): almost no fragmented DNA was detected
Cyclin D1; cytoplasm fraction, 12 hours and 24 hours
  abundance of cyclin D1: increased
Cyclin D1; cytoplasm fraction, after 48 hours
  abundance of cyclin D1: decreased again
Cyclin D1; nuclear fraction, 24 hours
  abundance of cyclin D1: a decrease in abundance of cyclin D1 was observed
Cyclin D1; siRNA against ATR introduced, cytoplasm fraction, 24 hours
  abundance of cyclin D1: abundances of cyclin D1 in the cytoplasm fractions increased
Cyclin D1; siRNA against ATR introduced, cytoplasm fraction, 48 hours
  abundance of cyclin D1: abundances of cyclin D1 in the cytoplasm fractions decreased again
Cyclin D1; siRNA against ATR introduced, nuclear fraction, 24 and 48 hours
  abundance of cyclin D1: an abundance of cyclin D1 was large
Cyclin D1; siRNA against PTEN introduced, cytoplasm fraction, 24 hours
  abundance of cyclin D1: abundances of cyclin D1 in the cytoplasm fractions increased
Cyclin D1; siRNA against PTEN introduced, cytoplasm fraction, 48 hours
  abundance of cyclin D1: abundances of cyclin D1 in the cytoplasm fractions decreased again
Cyclin D1; siRNA against PTEN introduced, nuclear fraction, 24 and 48 hours
  abundance of cyclin D1: an abundance of cyclin D1 was large
topoisomerase
  DNA cleavage: does not cause DNA cleavage
BALL-1 cells [1]; after 6 hours
  proportion of S-phase cells: 68%
BALL-1 cells [1]; after 12 hours and 24 hours
  proportion of G2/M-phase cells: about 3%
  proportion of S-phase cells: 75%
BALL-1 cells [1]; after 24 hours
  proportion of G1-phase cells: about 19%
p53 protein
  expression level of p53 protein: an increase in expression level of p53 protein was recognized
BALL-1 cells [2]
  reduction of cell proliferation inhibition by knockdown of ATR: about 20%
Caspase 3
  activation of caspase 3: activation of caspase 3 was observed
[3]
  phosphorylation of H2AX: phosphorylation of H2AX was not detected
